This assay has as its system NRF2, GCLC, ER stress markers. The experiment in a line: Western blot of NRF2, GCLC and ER stress markers. Format: cell-based. As to conditions: MEFs, MDA-MB231, MCF-7; 8-12 h. As to the method:
Western blot. Protein lysates were prepared using RIPA buffer containing 5% sodium deoxycholate, 0.1% SDS, 0.1% Igepal in PBS with a cocktail of protease and phosphatase inhibitors (1 mM PMSF, 1 mM sodium orthovanadate, 1 mM NaF, and 30 μL/mL aprotinin (Sigma-Aldrich, USA)) and clarified by centrifugation. Protein concentration was determined using Bradford Protein Assay Reagent (Biorad, Hercules, Calif.). Equal amounts of protein were resolved using 8-12% SDS polyacrylamide gel, transferred onto nitrocellulose membranes (Hybond-ECL, GE Healthcare Lifesciences, Piscataway, N.J.) and detected using Lumiglo system (Cell Signaling Technology, Calif.) and x-ray films. Primary antibodies included COX-2 (#4842), NRF2 (D1C9), p-JNK1/2 (Thr183/Tyr185, #4671), p-p38 (Thr180/Tyr182, #9216), p-ERK1/2 (Thr202/Tyr204, #9101), BiP/GRP78 (C50B12), IRE1a (14C10), CHOP (L63F7) and PERK (D11A8) from Cell Signaling Technology; p-IRE1a (Ser724; NB100-2323) from Novus Biologicals; GCLC (Ab41463), beta-actin (ab8227) and ATF6 (Ab37149) from Abcam; p-PERK (Thr 981, sc-32577) and ATF3 (C19) were purchased from Santa Cruz. All primary antibodies were used at 1:1000 dilutions and secondary antibodies were 1:3000 in TBS-T with 5% BSA.
(In general: A western blot detects proteins with antibodies after separation by electrophoresis.)

`COS(C)(=O)=O` [MMS, methyl-methanesulfonate]: the “NRF2 and GCLC protein levels” value is “rapidly increased in total and nuclear fractions”.

Values taken from US10231958B2, “Methods and compositions for enhancing chemotherapy” (THE BOARD OF REGENTS OF THE UNIVERSITY OF TEXAS SYSTEM, priority 2015, dated 2019).
